Experimental data published in publication PMC10288505, “Photoswitchable Calixarene Activators for Controlled Peptide Transport across Lipid Membranes” (Journal of the American Chemical Society, 2023).

Experiments:
hexaarginine (R6) = experiment: Indicator displacement assay with host:LCG reporter pair, guest R6; format: binding; conditions: association constant, competitive dye displacement with LCG, 5 mM phosphate buffer pH 7.3; only the lower limit can be estimated
Text: The binding affinity of the anionic calixarene activators toward cationic peptides was investigated using a small library of highly hydrophilic oligoarginines, from 3 to 8 residues. These peptides are not able to spontaneously transverse zwitterionic artificial membranes in vesicle assays, which allows the accurate evaluation of the calixarenes 1 and 2 as counterion activators without interferences from the transport of the peptide alone.[43]−[45] First, the formation of host–guest complexes between 1/2 and the selected peptides was verified by indicator displacement assays using lucigenin (LCG) as the fluorescent indicator.[46] As previously reported for other sulfonatocalixarene derivatives,[46] the formation of host–guest binding pairs between calixarenes 1/2 in the E- and Z-forms and LCG results in significant static fluorescence quenching (see Figure 2A and Figures S26 and S27). Quantitative analysis of the fluorescence titration data using a 1:1 host:guest binding model allows the determination of the respective binding constants (K) reported in Table 1. As can be observed, both 1/2 display high affinity for the LCG dye, on the 10^7 M^–1 range, which seems to be independent of the nature and conformation of the azobenzene arm. […] The host:LCG binding pairs were then employed in the above-mentioned indicator displacement assays to investigate the binding affinity of oligoarginines toward 1 and 2 (see Figure 2B and Figures S29–S33).
Figure 2 (A) Fluorescence titration of the lucigenin dye (LCG, 1.5 μM) with increasing concentrations of E-2 in water (5 mM phosphate buffer, pH 7.3). […]
The binding affinities of the counterion activators and peptide complexes were analyzed by indicator displacement assays. […] Firstly, the affinity for LCG was calculated for each of the activators, by titrations followed by fluorescence spectroscopy leading to almost full quenching of the emission. […]
Figure S26 - Fluorescence titration of the lucigenin dye with increasing concentrations of A) E-1 and B) Z–1 in water (5 mM phosphate buffer pH 7.3). […]

[1] = Light-modulated CF dye efflux assay (in situ irradiation at 500 nm); format: biochemical
Procedure: To this aim, Z-1 and Z-2 were added to EYPC-LUV⊃CF dispersions at fixed concentrations to study the CF release upon in situ light stimulation. […] Irradiation with 500 nm light promotes the conversion of Z-2 into E-2, a stronger counterion activator, leading to ca. 50% of extra dye released as a result of the light-triggered translocation of R6 into the liposome (Figure 4 iii).
Figure 4 (A) Light-modulated dye efflux assays performed with 4 μM R6, 60 nM Z-2, and 15 μΜ EYPC-LUV⊃CF (50 mM CF inside the liposome) and (B) schematization of each phase in the assay. (i) First, the activator Z-2 was added to a liposome solution (ii) followed by the addition of the peptide. (iii) The same sample was irradiated for 25 min at 500 nm, leading to a significant increase in CF release. (iv) Finally, in order to normalize the measurement for the maximum emission possible, the vesicles were lysed by addition of a small aliquot of Triton X-100. […]
until the emission stabilizes and a maximum of release is reached. If the counterion activator has the capacity to activate the transport, CF should be co-transported to the exterior of the liposome with the influx of the counterion-peptide complex. Finally, Triton X-100 is added to the solution to dissolve the vesicles and obtain the maximum amount of CF that could be released from the liposomes and emit in the […]
EC50 and Ymax values were calculated from the values of corrected emission at the plateau that is reached, according to previously reported assays.7
Light-activated release assays. The light-modulation offered by this novel counterion activator was tested by performing dye efflux assays as previously described, with the addition of an interval in the measurement where the solution was irradiated at 500 nm. […]
Figure S44 - Light-modulated dye efflux assays done with the peptide A) R6, 4 µM, and B) R8, 5 µM, with a fixed concentration of Z-1 of 0.20 µM for both assays. 40 µM of EYPC-LUV and 20 µΜ EYPC-LUV⊃CF (50 mM of CF) were used in the first assay and 30 µM of EYPC-LUV and 7 µΜ EYPC-LUV⊃CF (50 mM of CF) were used in the latter. The assay was performed in the same way as the dye release assays (addition of the peptide marked with a red dashed arrow) with an additional irradiation step for an interval of 30 to 40 min (marked with a black arrow), leading to an increase in release of ~15% for the peptide R6 and only 7% for the peptide R8. […]
Figure S45 - Light-modulated dye efflux assay done with the peptide R8, 4 µM, with a fixed concentration of Z-2 of 16 nM. 15 µΜ of EYPC-LUV⊃CF (50 mM of CF) were used and the light activation step was done with a single 25 min irradiation cycle at 500 nm (marked with a black arrow). The increase of release obtained was of 14%. […]

For `O=S(=O)([O-])c1cc2c(O)c(c1)Cc1cc(S(=O)(=O)[O-])cc(c1O)Cc1cc(S(=O)(=O)[O-])cc(c1OCCCCCCOc1ccc(/N=N/c3ccccc3)cc1)Cc1cc(S(=O)(=O)[O-])cc(c1O)C2.[Li+].[Li+].[Li+].[Li+]` [E-1], the “Apparent affinity constant K for R6” value (hexaarginine (R6)) was >5 × 10^8 ^a M^–1.
With `CCCCc1ccc(/N=N/c2ccc(OCCCOc3c4cc(S(=O)(=O)[O-])cc3Cc3cc(S(=O)(=O)[O-])cc(c3O)Cc3cc(S(=O)(=O)[O-])cc(c3O)Cc3cc(S(=O)(=O)[O-])cc(c3O)C4)cc2)cc1.[Li+].[Li+].[Li+].[Li+]` [E-2] the “Apparent affinity constant K for R6” value (hexaarginine (R6)) was >5 × 10^8 ^a M^–1.
In the case of `CCCCc1ccc(/N=N\c2ccc(OCCCOc3c4cc(S(=O)(=O)[O-])cc3Cc3cc(S(=O)(=O)[O-])cc(c3O)Cc3cc(S(=O)(=O)[O-])cc(c3O)Cc3cc(S(=O)(=O)[O-])cc(c3O)C4)cc2)cc1.[Li+].[Li+].[Li+].[Li+]` [Z-2], the “Extra dye released upon irradiation at 500 nm, R6” value ([1]; 4 μM R6, 60 nM Z-2, 15 μM EYPC-LUV⊃CF (50 mM CF), irradiated 25 min at 500 nm) is reported as “ca. 50%” and the “Increase in CF release upon irradiation, R8” value ([1]; 4 µM R8, 16 nM Z-2, 15 µM EYPC-LUV⊃CF (50 mM CF), single 25 min irradiation cycle at 500 nm) is reported as 14%.
For `O=S(=O)([O-])c1cc2c(O)c(c1)Cc1cc(S(=O)(=O)[O-])cc(c1O)Cc1cc(S(=O)(=O)[O-])cc(c1OCCCCCCOc1ccc(/N=N\c3ccccc3)cc1)Cc1cc(S(=O)(=O)[O-])cc(c1O)C2.[Li+].[Li+].[Li+].[Li+]` [Z-1], the “Increase in CF release upon irradiation, R6” value ([1]; 4 µM R6, 0.20 µM Z-1, 40 µM EYPC-LUV and 20 µM EYPC-LUV⊃CF (50 mM CF), irradiation 30 to 40 min at 500 nm) was ~ 15% and the “Increase in CF release upon irradiation, R8” value ([1]; 5 µM R8, 0.20 µM Z-1, 30 µM EYPC-LUV and 7 µM EYPC-LUV⊃CF (50 mM CF), irradiation 30 to 40 min at 500 nm) was 7%.
